Tests used:
H5N1 = type: cell-based
Avian Influenza virus [1] = test system: Avian Influenza virus; set-up: species or system Human; conditions: in vivo
Avian Influenza virus [2] = test system: Avian Influenza virus; set-up: species or system Human; conditions: in vivo; remark: listed apart in the source

Molecule | inhibits H5N1 infections in mammalian cells by blocking the attachment and entry into the cells (H5N1) | abatement of Avian Influenza symptoms (Avian Influenza virus [1]) | recovery from the Avian Influenza illness (Avian Influenza virus [1]) | adults in the test group developing Avian Influenza symptoms (Avian Influenza virus [2])
theaflavin-3′-gallate | inhibits H5N1 infections |  |  | 
O=C(O[C@@H]1Cc2c(O)cc(O)cc2O[C@@H]1c1cc(=O)c(O)c2c(O)c(O)cc([C@H]3Oc4cc(O)cc(O)c4C[C@H]3O)c2c1)c1cc(O)c(O)c(O)c1 [theaflavin-3-monogallate] | inhibits H5N1 infections |  |  | 
O=c1c(O)cc([C@H]2Oc3cc(O)cc(O)c3C[C@H]2O)cc2c([C@H]3Oc4cc(O)cc(O)c4C[C@H]3O)cc(O)c(O)c12 [theaflavin] | inhibits H5N1 infections | abate more rapidly than normal | fully recovers | None
theaflavin-3,3′-digallate | inhibits H5N1 infections |  |  | 
(−)-epigallocatechin gallate [EGCG] | inhibits H5N1 infections |  |  | 
